{"source": "patent US8119844B2", "about": "“Alcohol production process” (LanzaTech New Zealand Limited, priority 2008, dated 2012)", "key": {"[1]": {"tested_on": "Clostridium pasteurianum", "details": "for Acetate Consumption / Acetate Consumption (percent of starting acetate) / Final Acetate / Final Butanol / Final Butyrate / Glycerol Consumption: 30 g/l glycerol, after 3 days of fermentation", "description": "LM31 media at pH 7.4 was prepared as follows. All ingredients with the exception of Cysteine-HCl were mixed in 400 ml distilled water. This solution was made anaerobic by heating to boiling and allowing it to cool to room temperature under a constant flow of N2 gas. Once cool, the Cysteine-HCl was added and the pH of the solution adjusted to 7.4 before making the volume up to 1000 ml; anaerobicity was maintained throughout the experiments.\nBacteria: Clostridium pasteurianum were obtained from the German Resource Centre for Biological Material (DSMZ). The accession number given to the bacteria is DSMZ 525.\nIncubation was performed in 234 ml sealed serum bottles each containing 50 ml of the media LM31. The 184 ml headspace of each serum bottle was first flushed three times with N2 gas, before being evacuated and filed to an overpressure of 5 psig. Each bottle was inoculated with 1 ml of a Clostridium pasteurianum culture. A shaking incubator was used and the reaction temperature was maintained at 37° C.\nMedia samples were taken at intervals over a 3 day period. Each time the media was sampled care was taken to ensure that no gas was allowed to enter into or escape from the serum bottle.\nAll samples were used to establish the absorbancy at 600 nm (spectrophotometer) and the level of substrates and products (GC or HPLC). HPLC was routinely used to quantify the level of glycerol, methanol, acetate, and ethanol. When n-butyric acid and butanol were present, GC was used in combination with HPLC to quantify the levels of all substrates and products (glycerol, acids and alcohols).\nThe aim was to test the effect of initial acetate concentration on glycerol fermentation by Clostridium pasteurianum to produce butanol."}, "[2]": {"tested_on": "Clostridium pasteurianum", "assay": "Effect of methanol on the fermentation of glycerol to butanol (serum bottle)", "format": "cell-based", "details": "for Acetate Consumption / Final Butanol / Final Butyrate / Glycerol Consumption: 30 g/l glycerol, 2 g/l acetate, after 36 hours of fermentation", "description": "In this experiment, the effect of methanol on the conversion of commercial glycerol to butanol was studied. […] In addition, acetate and glycerol consumption decreased."}, "[3]": {"tested_on": "Clostridium pasteurianum", "assay": "Comparison of fermentation of commercial glycerol and glycerol from biodiesel waste for butanol production", "format": "cell-based", "details": "30 g/l commercial glycerol, 2 g/l acetate, after 36 hours of fermentation", "description": "Thirty grams biodiesel waste was dissolved in water up to 100 ml and stirred until the solution was homogenous. While stirring, 10% Hydrochloric acid solution was added until pH was below 3.0, so total coagulation of free fatty acid would occur. In order to improve the phase separation, the sample was centrifuged for 1 minute at 4,000 g. At this stage 3 phases could be seen: the top layer appeared oily and contained mostly FAME (Fatty acid methyl ester); the middle phase contained mostly coagulated free fatty acids; and, the bottom phase (aqueous phase) was clear and contained mostly water, glycerol and methanol. The aqueous phase was withdrawn carefully, filtered on a 0.2 μm filter and pH was then raised to pH 7.0 by addition of Sodium hydroxide. At this stage, methanol was evaporated by heating the solution under stirring and vacuum maintained with a water-jet. Finally water can be added in order to dilute the glycerol solution.\nThe aim of this experiment was to test the glycerol obtained from biodiesel waste, in a fermentation with Clostridium pasteurianum to produce butanol, in the presence of 2 g/l acetate initial concentration. The conversion of commercial glycerol (first row) was compared with glycerol obtained from biodiesel waste containing methanol (second row) or where methanol was evaporated (last row). […] Levels of butanol and biomass were the highest for bacteria growing on glycerol obtained from biodiesel, where methanol was evaporated. Acetate (50%) was also consumed."}}, "note": "Like-named read-outs stand apart in the source and are kept apart here."}
{"compound": "CC(=O)O", "note": "[Acetate, Acetic acid, glacial, 99.8%]", "values": [{"measurement": "Acetate Consumption", "setting": "[1]; starting acetate 1.4 g/l", "result": 0.4, "unit": "g/L"}, {"measurement": "Acetate Consumption (percent of starting acetate)", "setting": "[1]; starting acetate 1.4 g/l", "result": 28, "unit": "%"}, {"measurement": "Final Acetate", "setting": "[1]; starting acetate 1.4 g/l", "result": 1.0, "unit": "g/L"}, {"measurement": "Final Butanol", "setting": "[1]; starting acetate 1.4 g/l", "result": 3.0, "unit": "g/L"}, {"measurement": "Final Butyrate", "setting": "[1]; starting acetate 1.4 g/l", "result": 0.5, "unit": "g/L"}, {"measurement": "Glycerol Consumption", "setting": "[1]; starting acetate 1.4 g/l", "result": 12, "unit": "g/L"}, {"measurement": "Acetate Consumption", "setting": "[1]; starting acetate 2.2 g/l", "result": 1.0, "unit": "g/L"}, {"measurement": "Acetate Consumption (percent of starting acetate)", "setting": "[1]; starting acetate 2.2 g/l", "result": 45, "unit": "%"}, {"measurement": "Final Acetate", "setting": "[1]; starting acetate 2.2 g/l", "result": 1.2, "unit": "g/L"}, {"measurement": "Final Butanol", "setting": "[1]; starting acetate 2.2 g/l", "result": 3.5, "unit": "g/L"}, {"measurement": "Final Butyrate", "setting": "[1]; starting acetate 2.2 g/l", "result": 0.7, "unit": "g/L"}, {"measurement": "Glycerol Consumption", "setting": "[1]; starting acetate 2.2 g/l", "result": 13, "unit": "g/L"}, {"measurement": "Acetate Consumption", "setting": "[1]; starting acetate 3.5 g/l", "result": 1.6, "unit": "g/L"}, {"measurement": "Acetate Consumption (percent of starting acetate)", "setting": "[1]; starting acetate 3.5 g/l", "result": 45, "unit": "%"}, {"measurement": "Final Acetate", "setting": "[1]; starting acetate 3.5 g/l", "result": 1.9, "unit": "g/L"}, {"measurement": "Final Butanol", "setting": "[1]; starting acetate 3.5 g/l", "result": 3.1, "unit": "g/L"}, {"measurement": "Final Butyrate", "setting": "[1]; starting acetate 3.5 g/l", "result": 1.1, "unit": "g/L"}, {"measurement": "Glycerol Consumption", "setting": "[1]; starting acetate 3.5 g/l", "result": 12, "unit": "g/L"}, {"measurement": "acetate consumed in the course of the reaction", "setting": "[1]; increasing amounts of acetate added at the start of the fermentation", "result": "up to 45%"}]}
{"compound": "CO", "note": "[Methanol]", "values": [{"measurement": "Acetate Consumption", "setting": "[2]; starting methanol 5.6 g/l", "result": 0.8, "unit": "g/L"}, {"measurement": "Final Butanol", "setting": "[2]; starting methanol 5.6 g/l", "result": 2.4, "unit": "g/L"}, {"measurement": "Final Butyrate", "setting": "[2]; starting methanol 5.6 g/l", "result": 0.8, "unit": "g/L"}, {"measurement": "Glycerol Consumption", "setting": "[2]; starting methanol 5.6 g/l", "result": 14, "unit": "g/L"}, {"measurement": "Acetate Consumption", "setting": "[2]; starting methanol 11.2 g/l", "result": 0.8, "unit": "g/L"}, {"measurement": "Final Butanol", "setting": "[2]; starting methanol 11.2 g/l", "result": 2.0, "unit": "g/L"}, {"measurement": "Final Butyrate", "setting": "[2]; starting methanol 11.2 g/l", "result": 0.6, "unit": "g/L"}, {"measurement": "Glycerol Consumption", "setting": "[2]; starting methanol 11.2 g/l", "result": 13, "unit": "g/L"}, {"measurement": "Acetate Consumption", "setting": "[2]; starting methanol 16.3 g/l", "result": 0.6, "unit": "g/L"}, {"measurement": "Final Butanol", "setting": "[2]; starting methanol 16.3 g/l", "result": 1.1, "unit": "g/L"}, {"measurement": "Final Butyrate", "setting": "[2]; starting methanol 16.3 g/l", "result": 0.6, "unit": "g/L"}, {"measurement": "Glycerol Consumption", "setting": "[2]; starting methanol 16.3 g/l", "result": 11, "unit": "g/L"}, {"measurement": "effect on the bacteria and butanol production", "setting": "[2]; increasing amounts of methanol, commercial glycerol", "result": "increasing inhibitory effect"}]}
{"compound": "OCC(O)CO", "note": "[commercial glycerol, glycerol]", "values": [{"measurement": "Acetate Consumption", "setting": "[3]", "result": 1.0, "unit": "g/L"}, {"measurement": "Acetate Consumption (percent)", "setting": "[3]", "result": 50, "unit": "%"}, {"measurement": "Final Butanol", "setting": "[3]", "result": 2.9, "unit": "g/L"}, {"measurement": "Final Butyrate", "setting": "[3]", "result": 0.7, "unit": "g/L"}, {"measurement": "Glycerol Consumption", "setting": "[3]", "result": 15, "unit": "g/L"}]}
